Series [1] concerns the target T1, human histone deacetylases (HDAC) 6 (Homo sapiens, UniProt Q9UBN7).
T1 sequence (Q9UBN7 1-1215): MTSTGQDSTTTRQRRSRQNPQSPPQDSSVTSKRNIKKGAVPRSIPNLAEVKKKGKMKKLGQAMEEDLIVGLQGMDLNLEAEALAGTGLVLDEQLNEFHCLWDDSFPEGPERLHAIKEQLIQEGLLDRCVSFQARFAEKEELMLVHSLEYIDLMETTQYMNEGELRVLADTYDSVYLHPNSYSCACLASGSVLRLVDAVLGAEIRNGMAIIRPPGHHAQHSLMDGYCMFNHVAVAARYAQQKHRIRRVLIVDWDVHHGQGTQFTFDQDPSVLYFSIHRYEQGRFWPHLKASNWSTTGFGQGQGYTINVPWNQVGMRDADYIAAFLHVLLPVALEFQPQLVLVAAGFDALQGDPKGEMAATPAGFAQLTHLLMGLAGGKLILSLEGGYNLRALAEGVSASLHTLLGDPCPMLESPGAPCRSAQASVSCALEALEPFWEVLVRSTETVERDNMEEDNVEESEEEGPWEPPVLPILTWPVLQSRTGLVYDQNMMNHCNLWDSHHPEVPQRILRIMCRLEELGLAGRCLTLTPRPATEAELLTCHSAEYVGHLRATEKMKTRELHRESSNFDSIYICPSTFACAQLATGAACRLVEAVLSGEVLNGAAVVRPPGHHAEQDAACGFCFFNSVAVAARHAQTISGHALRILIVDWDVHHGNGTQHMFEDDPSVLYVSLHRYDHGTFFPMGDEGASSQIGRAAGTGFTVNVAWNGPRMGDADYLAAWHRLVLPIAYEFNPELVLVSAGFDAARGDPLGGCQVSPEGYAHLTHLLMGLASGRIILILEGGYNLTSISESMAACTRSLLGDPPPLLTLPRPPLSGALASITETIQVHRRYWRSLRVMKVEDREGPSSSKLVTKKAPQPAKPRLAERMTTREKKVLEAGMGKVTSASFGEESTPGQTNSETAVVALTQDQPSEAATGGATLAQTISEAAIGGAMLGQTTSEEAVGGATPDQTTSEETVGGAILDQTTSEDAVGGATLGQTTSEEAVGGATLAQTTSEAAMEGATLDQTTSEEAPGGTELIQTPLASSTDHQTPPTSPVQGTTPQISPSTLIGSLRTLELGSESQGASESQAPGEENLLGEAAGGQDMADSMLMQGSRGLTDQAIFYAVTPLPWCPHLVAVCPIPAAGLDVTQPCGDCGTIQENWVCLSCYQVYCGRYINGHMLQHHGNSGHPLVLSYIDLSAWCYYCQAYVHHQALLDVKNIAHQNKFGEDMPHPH
The series is described as follows: HDAC enzymatic assay, HDAC6. The class given is biochemical. The note with it: for selective inhibitions on HDAC6: HDAC6 versus other HDACs.

Series [2] deals with T2, human histone deacetylases (HDAC) 8 (Homo sapiens, UniProt Q9BY41).
T2 sequence (Q9BY41 1-377): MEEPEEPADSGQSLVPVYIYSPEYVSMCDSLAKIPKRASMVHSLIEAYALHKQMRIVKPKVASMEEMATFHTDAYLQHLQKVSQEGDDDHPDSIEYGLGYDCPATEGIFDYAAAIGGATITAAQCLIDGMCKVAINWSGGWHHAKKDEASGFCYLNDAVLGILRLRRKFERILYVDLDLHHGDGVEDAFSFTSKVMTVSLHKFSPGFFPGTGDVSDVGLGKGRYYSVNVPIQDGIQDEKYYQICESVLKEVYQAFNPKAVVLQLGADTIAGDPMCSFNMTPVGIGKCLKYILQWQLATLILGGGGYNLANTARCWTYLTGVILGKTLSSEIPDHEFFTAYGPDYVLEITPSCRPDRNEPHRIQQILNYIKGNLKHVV
The series is described as follows: HDAC enzymatic assay, HDAC8. It counts as biochemical.

The test system of series [3] is SH-SY5Y cells. Nature of the series: Neurite outgrowth assay, SH-SY5Y. As to conditions: Homo sapiens. The class given is cell-based.
The subject of series [4] is PC 12 cells. Nature of the series: Neurite outgrowth assay, PC 12. The class given is cell-based. As to conditions: Rattus norvegicus.
Series [5] relates to PC 12 cells. The series is described as follows: Neurite synaptic uptake activity (FM1-43), PC 12. It counts as cell-based. As to conditions: Rattus norvegicus, NGF positive control taken as 100%, read-out: uptake of dye FM1-43 EC50. Here is the method: (§1) Neurite Synaptic Uptake Activity Analysis.
(§2) The effects of compounds on the neuronal synapse uptake of fluorescent indicator FM1-43 were assayed. The uptake of the dye indicated the synaptic function of the neurites. PC 12 and SH-SY5Y cells were used. Cells in experimental groups were treated with a test compound and FM1-43; Cells in positive control were treated with NGF and FM1-43; Cells in negative control were treated with a vehicle and FM1-43. The fluorescence in the positive control were taken as 100%.

Series [6] deals with human histone deacetylases (HDAC) 1 (Homo sapiens, UniProt Q13547). Nature of the series: HDAC enzymatic assay, HDAC1. It counts as biochemical. The note with it: read-out: IC50 HDAC1 (grading).
Series [7] deals with SH-SY5Y cells. The series is described as follows: Neurite synaptic uptake activity (FM1-43), SH-SY5Y. It counts as cell-based. The note with it: Homo sapiens, NGF positive control taken as 100%, read-out: uptake of dye FM1-43 EC50. The procedure: as §1, §2
Series [8] can be described thus: MTT or SRB assay for cytotoxicity, A549. The class given is cell-based. As to conditions: human, A549 cells, read-out: cytotoxicity IC50 (grading) A549. The procedure:
(§3) MTT or SRB Assays for Cytotoxicities of HDAC Inhibitors.
(§4) These compounds were assayed for cytotoxicities to the following cells: A549 cells (adenocarcinomic human alveolar basal epithelial cells), HCT-116 cells (human colon carcinoma cells). PANC-1 cells (human pancreatic carcinoma, epithelial-like cell line) and HepG2 cells (human liver hepatocellular carcinoma cell line), neuronal cells PC12 (rat pheochromocytoma cell line) and SH-SY5Y (human neuroblastoma cell line). MTT (3-[4,5-dimethylthiazol-2-yl]2,5-diphenyl-tetrazolium bromide) reduction was collaborated by using trypan blue exclusion assay.

Series [9] can be described thus: MTT or SRB assay for cytotoxicity, PANC1. The note with it: human, PANC-1 cells, read-out: cytotoxicity IC50 (grading) PANC1. The class given is cell-based. The procedure:
as §3, §4

Series [10] in a line: MTT or SRB assay for cytotoxicity, HepG2. It counts as cell-based. The note with it: human, HepG2 cells, read-out: cytotoxicity IC50 (grading) HepG2. Here is the method: as §3, §4
Background: Tetrazolium assays rely on reduction of a dye to a coloured formazan, in cell work by metabolically active cells.

Series [11] can be described thus: MTT or SRB assay for cytotoxicity, HCT116. The class given is cell-based. As to conditions: human, HCT-116 cells, read-out: cytotoxicity IC50 (grading) HCT116. Here is the method: as §3, §4
[12] abbreviates: HDAC6, read-out: IC50 HDAC6 (grading).
Where [13] appears, read: HDAC8, read-out: IC50 HDAC8 (grading).

Like-named read-outs stand apart in the source and are kept apart here.

Chain of human histone deacetylases (HDAC) 1 (Q13547 whole entry): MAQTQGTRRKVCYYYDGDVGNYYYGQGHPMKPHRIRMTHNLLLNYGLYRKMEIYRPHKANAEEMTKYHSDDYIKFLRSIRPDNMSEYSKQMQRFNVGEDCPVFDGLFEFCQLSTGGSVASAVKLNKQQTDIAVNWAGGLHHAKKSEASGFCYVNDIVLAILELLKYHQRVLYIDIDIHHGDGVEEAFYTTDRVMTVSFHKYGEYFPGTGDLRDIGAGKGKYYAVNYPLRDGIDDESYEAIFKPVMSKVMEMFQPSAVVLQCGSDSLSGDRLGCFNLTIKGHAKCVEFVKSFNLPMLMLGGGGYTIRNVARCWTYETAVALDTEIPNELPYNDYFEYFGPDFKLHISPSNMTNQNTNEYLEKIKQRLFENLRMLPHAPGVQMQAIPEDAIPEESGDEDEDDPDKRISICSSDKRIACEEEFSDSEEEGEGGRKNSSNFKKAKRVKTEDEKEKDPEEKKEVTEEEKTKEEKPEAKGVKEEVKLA

Broadly, the IC50 is the concentration that inhibits the measured activity by half. As to `Cc1nc2cc(/C=C/C(=O)NO)ccc2c(=O)n1-c1ccccc1` [Compound 1c, (2E)-3-(3,4-dihydro-2-methyl-4-oxo-3-phenylquinazolin-7-yl)-N-hydroxyacrylamide], the half-inhibitory concentration (IC50) in series [1] was below 0.1 µM; in series [2] it was 1 to 10 µM.
Broadly, the EC50 is the concentration needed to bring the measured effect to its halfway point. For orientation: melting point means the temperature of the solid-liquid transition. `CCc1nc2cc(/C=C/C(=O)NO)ccc2c(=O)n1CCCc1ccccc1` [Compound 1j, (2E)-3-(2-ethyl-3,4-dihydro-4-oxo-3-(3-phenylpropyl)quinazolin-7-yl)-N-hydroxyacrylamide] came in with a melting point of 189 to 191 °C. For the same molecule, in series [3], it took 9.97 ± 1.17 µM to reach a half-maximal effect (EC50). The molecule also showed an EC50 in [4] of 6.95 ± 0.82 µM. The IC50 in series [1] (setting [12]) was below 0.1 µM. Also, the “selective inhibitions on HDAC6” value in [1] is given as “selective inhibitions on HDAC6”. Further, the IC50 in [2] (setting [13]) was in the range of 1 to 10 µM. In addition, the EC50 in series [5] came out at 6.95 ± 0.82 µM. In series [6], the IC50 lay within 1 to 10 µM. The 50% effective concentration (EC50) in series [7] turned out to be 9.97 ± 1.17 µM.
Consider `O=C(/C=C/c1ccc2c(=O)n(CCc3ccccc3)c(C3CC3)nc2c1)NO` [Compound 1k, (2E)-3-(2-cyclopropyl-3,4-dihydro-4-oxo-3-phenethylquinazolin-7-yl)-N-hydroxyacrylamide], for which the melting point was 204 to 206 °C (dec.). Besides, the half-maximal effective concentration (EC50) in series [3] is above 30 µM. Besides, it took 0.76 ± 0.69 µM to reach a half-maximal effect in series [4] (EC50). The half-maximal inhibitory concentration (IC50) in series [1] (setting [12]) was below 0.1 µM. For the same molecule, the EC50 in series [5] turned out to be 0.76 ± 0.69 µM. Also, in series [6], the 50% inhibitory concentration (IC50) is 0.1 to 1 µM. Further, the EC50 in [7] was above 30 µM.
Turning to `CC(C)c1nc2cc(/C=C/C(=O)NO)ccc2c(=O)n1CCc1ccccc1` [Compound 1l, (2E)-3-(3,4-dihydro-2-isopropyl-4-oxo-3-phenethylquinazolin-7-yl)-N-hydroxyacrylamide], the melting point was 173 to 174 °C (dec.). Besides, the EC50 in [3] came out at 6.74 ± 0.78 µM. Moreover, in series [4], the EC50 is 5.28 ± 0.51 µM. The 50% inhibitory concentration (IC50) in series [1] (setting [12]) is below 0.1 µM. In series [5], the concentration giving a half-maximal response (EC50) is 5.28 ± 0.51 µM. For the same molecule, the IC50 in series [6] was in the range of 0.1 to 1 µM. For the same molecule, the EC50 in series [7] was 6.74 ± 0.78 µM.
Take `CCc1nc2cc(/C=C/C(=O)NO)c(F)cc2c(=O)n1CCc1ccccc1` [Compound 2a, (2E)-3-(2-ethyl-6-fluoro-3,4-dihydro-4-oxo-3-phenethylquinazolin-7-yl)-N-hydroxyacrylamide]: the half-maximal inhibitory concentration (IC50) in [1] (setting [12]) is below 0.1 µM; in series [2] (setting [13]) it was 1 to 10 µM; in series [8], 1 to 10 µM; in series [9] it was 1 to 10 µM; in series [10], 1 to 10 µM; in series [11], 1 to 10 µM. The half-maximal inhibitory concentration (IC50) in [6] was 1 to 10 µM. The “selective inhibitions on HDAC6” value in series [1] is given as “selective inhibitions on HDAC6”. The EC50 in [5] came out at 1.66 ± 0.76 µM.
For `CCc1nc2ccc(Cc3ccc(C(=O)NO)cc3)cc2c(=O)n1CCc1ccccc1` [Compound 4a, 4-((2-ethyl-3,4-dihydro-4-oxo-3-phenethylquinazolin-6-yl)methyl)-N-hydroxybenzamide], the half-maximal effective concentration (EC50) in [3] turned out to be 4.06 ± 0.58 µM; in [4], 2.89 ± 0.45 µM; in [5] it was 2.89 ± 0.45 µM; in series [7] it was 4.06 ± 0.58 µM. The IC50 in series [1] (setting [12]) was below 0.1 µM; in series [2] (setting [13]), below 0.1 µM; in [6] it was 1 to 10 µM. The “selective inhibitions on HDAC6” value in [1] is recorded as “selective inhibitions on HDAC6”.
As to `CCc1nc2c(Cc3ccc(C(=O)NO)cc3)cccc2c(=O)n1CCc1ccccc1` [Compound 4c, 4-((2-ethyl-3,4-dihydro-4-oxo-3-phenethylquinazolin-8-yl)methyl)-N-hydroxybenzamide], the IC50 in [1] was 0.1 to 1 µM; in [2] it was 0.1 to 1 µM; in [8], at least 10 µM; in series [9], at least 10 µM; in series [10], 1 to 10 µM; in series [11] it was at least 10 µM. For the same molecule, the EC50 in [5] was found to be 5.34 ± 0.85 µM.

The record behind these values is US9387209B2, “Histone deacetylases (HDACs) inhibitors” (ANNJI PHARMACEUTICAL CO., LTD., priority 2012, dated 2016).
